Read-outs that look alike come from different tables or passages of the source. Residues, ends and D or L forms follow the SMILES beside them. *: point of attachment. Biotin = O=C1N[C@H]2[C@H](CS[C@H]2CCCCC(=O)*)N1
Key:
HEK293/sortilin cells [1] = assay: Pulse-chase cellular degradation of TNFalpha (Western blot of lysates); type: cell-based; conditions: 24 h pre-incubation with compound 3 μM and TNFalpha 100 nM, chase 0 h to 24 h
Experimental: To monitor cellular degradation of target over time, a pulse-chase experiment was performed: HEK293/sortilin cells were pre-incubated with bifunctional compound (3 μM) and TNFalpha (100 nM) for 24 h before replacing culture supernatant with fresh media without target and bifunctional compound. Following replacement of media, cells were incubated for up to 24 h and TNFa levels was assessed at different timepoints by Western blotting of cell lysates.

HEK293/sortilin cells [2] = assay: Remaining TNFalpha in conditioned media (ELISA); type: cell-based; conditions: after 72 h, 20 nM TNFalpha; added TNFalpha (100%) subtracted remaining TNFalpha (%)
Experimental: In different experiments, HEK293/sortilin cells were incubated with compound gradient series and 20 nM TNFalpha for up to 72 h. Following incubation, remaining TNFalpha in conditioned media was evaluated using human TNF-alpha Quantikine ELISA Kit (R&D systems, DTA00D).

[3] = tested on: HEK293 cells expressing full length sortilin receptor; assay: Cellular uptake of TNFalpha / Cy5-TNFalpha mediated by bifunctional compounds; type: cell-based; conditions: 24 h, 0.5 nM to 20 μM, leupeptin 80 μM vs without
Experimental: Cellular uptake of TNFalpha was investigated in HEK293 cells expressing full length sortilin receptor using a methodology analogous to example 3 with TNFalpha target.
Efficacy of individual bifunctional compounds was assessed as AUC of TNFalpha internalisation (Table 9)

[4] = biological target: T1, soluble ectodomain of sortilin-6his (Homo sapiens, UniProt Q99523, V650M); assay: MST binding to soluble ectodomain of sortilin-6his; conditions: MST, read-out: KD score, binding to sortilin (Kd)
T1 construct: the soluble ectodomain of sortilin-6his is measured by microscale thermophoresis (MST)

TNFa plasma levels = assay: Mouse model of LPS induced acute systemic inflammation, plasma TNFa; type: in vivo; conditions: 10 or 30 mg/kg, 1 hour after LPS, C57BL/6J mice, p<0.0001 (one-way ANOVA)
Experimental: Degrader in vivo efficacy was investigated in a mouse model of lipopolysaccaride (LPS) induced acute systemic inflammation. Female C57BL/6J mice, 8 weeks of age were used in this model, and LPS was dosed as IP injection at a final concentration of 0.5 mg/kg in PBS at 10 ml/kg. 30 min to 3 hours prior LPS administration, animals were dosed with test compound (100-0.3 mg/kg/IP), dexamethasone (Dex) control (0.5 mg/kg/PO) or vehicle control (IP). Untreated (normal) animals were included as control for LPS induced TNFa expression. One hour post LPS administration, blood samples were collected and TNFa level was assessed by Cytometric Bead Array assay.

HEK293/sortilin cells [5] = assay: Lysosomal degradation of internalized AlexaFluor488-anti-DNP antibody (blotted lysates); type: cell-based; conditions: 6:30 h, AlexaFluor488-anti-DNP antibody 100 nM, compound 30 nM
Experimental: Intracellular levels of AlexaFluor488-anti-DNP antibody (Thermo Fisher) following internalization was investigated in HEK293/sortilin cells. Cells (250k) were seeded in 4-well plates in 250 μL culture medium as described in Example 3 and incubated overnight.
Culture medium was replaced with assay medium (as described in Example 3) with AlexaFluor488-anti-DNP antibody (Thermo Fisher) (100 nM) and BF005 (30 nM). Selected samples were added sortilin inhibitor, AF38469 (10 μM) or a lysosomal protease inhibitor, Leupeptin (80 μM) (Sigma Aldrich). Cells were incubated 3-6: 30 h in cell incubator before they were washed with dPBS (Bionordika) and medium was either replaced with assay medium without BF005 and AlexaFluor488-anti-DNP antibody and incubated in cell incubator for up to 24 h or cells were lysed. Following incubation, cells were lysed in lysis buffer, and lysates were subjected to SDS-PAGE before transfer of proteins to a nitrocellulose membrane as described in Example 4. AlexaFluor488 FI signal was detected using an iBright 1500 (Thermo Fisher). Following evaluation of FI signal, membrane was blocked and incubated with primary anti-β-actin antibody (1:3500) (Sigma Aldrich) and secondary anti-mouse-HRP antibody (1:3500) (Abcam) and developed and analyzed using ECL reagents (Cytiva) and iBright 1500 (Thermo Fisher), as described in example 4. […]

HEK293/sortilin = assay: Cellular uptake of target in HEK293 cells expressing sortilin receptor (Example 22); type: cell-based; conditions: 3 h, 2 nM to 2 μM, corresponding targets
Excerpt: (§1) Cellular uptake of target was investigated in untransfected HEK239 cells and HEK293 cells expressing sortilin receptor in a methodology analogous to example 3.

HEK293/sortilin cells [6] = assay: Depletion of NA650 from cell culture supernatant; type: cell-based; conditions: after 48 and 72 hours, NA650 100 nM, 20 nM-5 μM
Experimental: HEK293/sortilin cells were cultured in culture media containing DMEM (Lonza) further supplemented with 10% fetal bovine serum (Sigma), 1% GlutaMax Supplement (Gibco), penicillin-streptomycin (Thermo Fischer) and selection antibiotics 100 μg/mL Zeocin (Invitrogen). 35k cells/well were seeded in poly-L-lysine coated 96-well plates (Perkin Elmer) and allowed to incubate for 16-24 h in cell incubator (37° C., humidified, 5% CO2). Culture media were discarded, and the cells were washed with assay medium containing FluoroBright DMEM (Gibco) supplemented with 10% fetal bovine serum (Sigma) and 1% GlutaMax Supplement (Gibco). The media were discarded and replaced with assay media or assay medium containing 100 nM NA650 (Invitrogen). For wells evaluating the bifunctional compounds, the assay medium also contained concentrations ranging from 20 nM to 5 μM. After an incubation period of up to 72 h in the cell incubator the media were harvested and the presence of NA650 were evaluated by fluorescence intensity (FI) measurements of DyLight650 using a fluorescence plate reader (BMG Labtech Clariostar).
HEK293/sortilin cells (35k cells/96-well) were seeded in culture media (as described in Example 3) and incubated for 24 h in cell incubator. Culture media were discarded, and the cells were washed with assay medium containing FluoroBright DMEM (Gibco) and supplements as described in Example 3, before incubation in assay medium containing 100 nM NA650 and small molecule bifunctional compounds (20 nM to 5 μM). After an incubation period of up to 72 h, the media were harvested and the presence of NA650 were evaluated by FI measurements of DyLight650 using a fluorescence plate reader (BMG Labtech Clariostar).

[7] = tested on: untransfected HEK239 cells; assay: Cellular uptake of target in untransfected HEK293 cells (Example 22); type: cell-based; conditions: HEK293 cells without sortilin, 3 h, 2 nM to 2 μM, corresponding targets
Excerpt: as §1

[8] = biological target: streptavidin, bifunctional compound and sortilin-6his (UniProt P22629+Q99523, V650M); assay: TR-FRET ternary complex formation streptavidin / bifunctional peptide / sortilin-6his; conditions: Table 2; […] incubation, HTRF ratio 665/620 nm
Sortilin-6His = biological target: T2, Sortilin-6His (Homo sapiens (Human), UniProt Q99523 78-755); assay: MST on labelled sortilin-6his ectodomain
T2 construct: In MST it was labelled non-covalently with RED-tris-NTA; also called soluble ectodomain of sortilin-6his; fluorescent sortilin-6his

[9] = Table 4, small molecule bifunctional compounds

T1 sequence (Q99523 with tags, fused parts or gaps V650M): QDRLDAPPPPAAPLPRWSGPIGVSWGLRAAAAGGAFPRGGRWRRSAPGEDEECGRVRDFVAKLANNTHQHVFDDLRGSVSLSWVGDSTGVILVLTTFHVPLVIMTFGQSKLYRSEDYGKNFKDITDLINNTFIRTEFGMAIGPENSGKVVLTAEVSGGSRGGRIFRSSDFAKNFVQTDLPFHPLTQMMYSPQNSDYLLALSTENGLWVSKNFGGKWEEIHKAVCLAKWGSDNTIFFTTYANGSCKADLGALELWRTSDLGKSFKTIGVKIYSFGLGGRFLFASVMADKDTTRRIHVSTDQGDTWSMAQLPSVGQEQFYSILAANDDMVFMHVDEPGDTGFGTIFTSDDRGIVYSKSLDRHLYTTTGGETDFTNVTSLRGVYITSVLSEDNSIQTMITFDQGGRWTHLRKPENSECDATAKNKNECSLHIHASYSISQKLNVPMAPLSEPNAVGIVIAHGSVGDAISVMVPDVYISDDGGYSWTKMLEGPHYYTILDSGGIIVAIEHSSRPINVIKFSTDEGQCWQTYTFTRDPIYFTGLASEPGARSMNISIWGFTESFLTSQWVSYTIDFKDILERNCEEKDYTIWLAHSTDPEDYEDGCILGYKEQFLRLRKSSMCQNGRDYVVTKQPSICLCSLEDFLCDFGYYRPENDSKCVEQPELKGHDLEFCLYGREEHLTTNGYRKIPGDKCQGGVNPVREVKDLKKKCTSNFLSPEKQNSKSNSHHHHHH
T2 sequence (Q99523 78-755 V650M limits assumed): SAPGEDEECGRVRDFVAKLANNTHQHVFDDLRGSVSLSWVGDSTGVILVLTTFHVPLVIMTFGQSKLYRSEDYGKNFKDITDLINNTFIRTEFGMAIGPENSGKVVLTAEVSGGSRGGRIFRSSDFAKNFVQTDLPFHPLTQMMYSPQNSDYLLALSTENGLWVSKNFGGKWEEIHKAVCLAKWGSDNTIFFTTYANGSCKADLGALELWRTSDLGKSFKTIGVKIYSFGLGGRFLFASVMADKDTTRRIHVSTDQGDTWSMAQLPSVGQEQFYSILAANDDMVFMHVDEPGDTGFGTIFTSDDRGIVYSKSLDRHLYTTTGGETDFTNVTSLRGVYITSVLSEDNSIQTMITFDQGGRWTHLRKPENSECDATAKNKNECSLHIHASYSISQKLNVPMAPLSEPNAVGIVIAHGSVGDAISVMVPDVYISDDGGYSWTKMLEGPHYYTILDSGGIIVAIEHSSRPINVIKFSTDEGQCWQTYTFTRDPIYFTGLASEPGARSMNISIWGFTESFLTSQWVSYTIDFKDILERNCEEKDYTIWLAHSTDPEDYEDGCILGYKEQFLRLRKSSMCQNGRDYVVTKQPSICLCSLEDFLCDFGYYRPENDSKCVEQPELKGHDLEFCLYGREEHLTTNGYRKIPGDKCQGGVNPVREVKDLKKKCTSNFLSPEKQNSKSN

Molecule: C[C@@H]1CN(c2ncc(-c3ccc4c(n3)N(Cc3cccnc3C#N)C(C)(C)C4=O)cn2)CCN1C(=O)CNC(=O)CCCCCCCCCCCNC(=O)c1cccc(Oc2ccc(C(=O)N[C@@H](CCC(C)(C)C)C(=O)O)cn2)c1 [BF042, (2S)-2-[[6-[3-[[12-[[2-[(2R)-4-[5-[1-[(2-cyano-3-pyridyl)methyl]-2,2-dimethyl-3-oxo-pyrrolo[2,3-b]pyridin-6-yl]pyrimidin-2-yl]-2-methyl-piperazin-1-yl]-2-oxo-ethyl]amino]-12-oxo-dodecyl]carbamoyl]phenoxy]pyridine-3-carbonyl]amino]-5,5-dimethyl-hexanoic acid]
- TNFalpha bands in cell lysate over time (HEK293/sortilin cells [1]): barely detectable after 7 h
- Maximum clearance rates of TNFalpha from conditioned media (HEK293/sortilin cells [2]): 74.4%
- cell associated FI signal with addition of leupeptin [3]: marked increases cell associated signal
- Kd [4, 9]: 1 to 10 nM

Molecule: Cc1nc2cc(F)c(-c3cnc(N4CCN(C(=O)Cn5cc(COCCOCCOCC(=O)N6CCC(Oc7cccc(Oc8ccc(C(=O)N[C@@H](CCC(C)(C)C)C(=O)O)cn8)c7)CC6)nn5)[C@H](C)C4)nc3)nc2c(N[C@H](C)c2cc(C#N)ccc2F)c1Cl [BF094, (2S)-2-[[6-[3-[[1-[2-[2-[2-[[1-[2-[(2R)-4-[5-[7-chloro-8-[[(1R)-1-(5-cyano-2-fluoro-phenyl)ethyl]amino]-3-fluoro-6-methyl-1,5-naphthyridin-2-yl]pyrimidin-2-yl]-2-methyl-piperazin-1-yl]-2-oxo-ethyl]triazol-4-yl]methoxy]ethoxy]ethoxy]acetyl]-4-piperidyl]oxy]phenoxy]pyridine-3-carbonyl]amino]-5,5-dimethyl-hexanoic acid]
- plasma TNFa compared to vehicle group (TNFa plasma levels): significant decrease
- Kd [4, 9]: 1 to 10 nM

Molecule: CNC(=O)c1cccc2c(Oc3ccc(C(=O)N[C@@H](CCC(C)(C)C)C(=O)O)cn3)cccc12 [SB001, (2S)-5,5-dimethyl-2-[[6-[[5-(methylcarbamoyl)-1-naphthyl]oxy]pyridine-3-carbonyl]amino]hexanoic acid]
- Ig heavy chain (HC) band in lysates (HEK293/sortilin cells [5]): absent

Molecule: CC(C)C[C@H](NC(=O)[C@H](CC(C)C)NC(=O)[C@H](CCC(N)=O)NC(=O)[C@H](Cc1ccccc1)NC(=O)CNC(=O)CNC(=O)[C@H](CO)NC(=O)CNC(=O)CNC(=O)CNC(=O)CNC(=O)[C@H](CO)NC(=O)CNC(=O)CNC(=O)CNC(=O)CNC(=O)[C@H](CO)NC(=O)CNC(=O)CNC(=O)CCCC[C@@H]1SC[C@@H]2NC(=O)N[C@@H]21)C(=O)O [SEQ ID NO.: 155] (Biotin-GGSGGGGSGGGGSGGFQLL-OH)
- cell associated FI response to increasing degrader concentration (HEK293/sortilin): bell-shaped FI response
- NA650 FI signal in supernatant compared to SEQ ID NO.: 147 (in words) (HEK293/sortilin cells [6]): further reduction of target in cell culture supernatant
- Kd ([4]; Table 1, biotin-linker-peptide bifunctional compounds): 100 to 2000 nM
- cell associated FI response to increasing degrader concentration [7]: No response
- AUC score, TR-FRET measurements of ternary complex formation [8]: ++ (AUC > 5000)

B1: Biotin-GGSGGGGSGGGGSGG-OH (peptide)
peptide: Biotin-GGSGGGGSGGGGSGG-OH
SMILES: O=C(O)CNC(=O)CNC(=O)[C@H](CO)NC(=O)CNC(=O)CNC(=O)CNC(=O)CNC(=O)[C@H](CO)NC(=O)CNC(=O)CNC(=O)CNC(=O)CNC(=O)[C@H](CO)NC(=O)CNC(=O)CNC(=O)CCCC[C@@H]1SC[C@@H]2NC(=O)N[C@@H]21
- binding result (Sortilin-6His): no binding

From patent US20250345446A1 (Draupnir Bio ApS, priority 2022, published 2025)
